Data on two compounds can be found in ChEMBL document CHEMBL4665875, “Synthesis, biological evaluation and in silico modeling of novel pan-genotypic NS5A inhibitors” (Bioorg Med Chem, 2020).

Data set [1] addresses T1, Nonstructural protein 5A (Hepatitis C virus) (UniProt Q5L478).
T1 sequence (whole entry): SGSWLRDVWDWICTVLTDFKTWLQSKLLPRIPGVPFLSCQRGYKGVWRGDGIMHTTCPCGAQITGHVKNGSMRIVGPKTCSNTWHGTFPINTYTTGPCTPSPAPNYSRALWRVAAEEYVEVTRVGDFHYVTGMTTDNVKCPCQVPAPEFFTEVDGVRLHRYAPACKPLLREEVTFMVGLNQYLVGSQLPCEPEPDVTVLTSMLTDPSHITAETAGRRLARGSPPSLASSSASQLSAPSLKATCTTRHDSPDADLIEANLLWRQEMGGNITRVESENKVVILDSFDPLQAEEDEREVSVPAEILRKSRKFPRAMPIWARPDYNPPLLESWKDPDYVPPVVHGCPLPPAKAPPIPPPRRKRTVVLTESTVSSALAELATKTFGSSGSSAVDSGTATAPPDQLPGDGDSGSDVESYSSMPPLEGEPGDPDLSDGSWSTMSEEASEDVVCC
The data set is described as follows: Potency index, ratio of AV-4025 IC50 to test compound IC50 for inhibition of HCV genotype 3a NS5A infected in Huh7 cells assessed as reduction in viral replication incubated 3 days and measured by bright Glo-luciferase reporter gene assay. The format is cell-based. Conditions: Hepatitis C virus subtype 3a; time 3.0 day.

Data set [2] can be described thus: Cytotoxicity against HCV genotype 1b NS5A infected human HuH7 cells assessed as reduction in cell viability measured after 72 hrs by CellTiter-Glo assay. Conditions: HuH7 cells infected with HCV genotype 1b NS5A.

A word on the CC50: it is the concentration giving 50% cytotoxicity.

As for `COC(=O)N[C@H](C(=O)N1CCC[C@H]1c1ncc(-c2ccc(C#CC#Cc3cnc([C@@H]4CCCN4C(=O)[C@H](NC(=O)OC)c4ccccc4)[nH]3)cc2)[nH]1)C(C)C`, in data set [1], the Ratio IC50 was 13. Also, the CC50 at 72 h in data set [2] was over 10 µM.

Consider `COC(=O)NC(C(=O)N1CCC[C@H]1c1ncc(-c2ccc(C#CC#Cc3cnc([C@@H]4CCCN4C(=O)C(NC(=O)OC)C(C)C)[nH]3)cc2)[nH]1)c1ccccc1` (single isomer, unassigned), for which the Ratio IC50 in data set [1] is 6.8. The CC50 at 72 h in data set [2] was over 10 µM.
